Measurements reported in paper PMC11168191, “Systemic Treatment with siRNA Targeting Gamma-Secretase Activating Protein Inhibits Amyloid-β Accumulation in Alzheimer’s Disease” (Biomaterials Research, 2024).
Read-outs that look alike come from different tables or passages of the source. Blank lines part the entries; values can stand above or below the molecule they belong to. Bridge positions count the residues as written; N and C are the ends. Ends that are not written are not given here. I, II: the chains in the order shown.

Tests used:
SOD1 = SOD1 gene silencing in mouse organs and brain regions, qPCR; type: in vivo, mice; conditions: 400 pmol siSOD1, 100 μg peptide, tail vein, daily for 3 d, n = 8
Experimental: All procedures were performed in compliance with guidelines and protocols approved by the Institutional Animal Care and Use Committee (IACUC) of Hanyang University. The Balb/c mice were used to test the in vivo delivery of complexed particles to the brain. To ascertain ligand-receptor-mediated delivery of diLep9R3LC:siRNA, the leptin-receptor-deficient (db/db, Jackson Laboratory, ME) strains were utilized. Further, to study therapeutic efficacy of siRNA in AD, 7-month-old male 3xTg (B6;129-Psen1tm1Mpm Tg (APPSwe,tauP301L)1Lfa/Mmjax) mice (Jackson Laboratory, ME) were used. These mice show AD-like pathological and physiological characteristics with respect to formation of Aβ plaques and tangled tau as well as abnormal behaviors. […] In all experiments, a group of control mice (n = 4) were also injected with DPBS (pH 7.4).
For quantitative polymerase chain reaction (qPCR), total RNA was extracted from N2a cells 24 h posttransfection and homogenized brain samples using the RNAiso kit (Takara, Kyoto, Japan). The RNA was quantified with SYBR premix Ex Taq perfect real time (Takara, Kyoto, Japan) with qPCR primers. In all cases, relative gene expression was calculated in comparison to normalized target mRNA levels in nontreated groups. […] All primers were synthesized from Cosmogenetech (Seoul, Korea), and sequences are depicted below.

leptin receptor [1] = biological target: T1, leptin receptor (Homo sapiens, UniProt P48357); test: SPR biosensor binding of peptide to immobilized leptin receptor; conditions: for kon: read-out: association constant (Ka)
T1 construct: purchased R&D Systems
T1 sequence (P48357 22-1165): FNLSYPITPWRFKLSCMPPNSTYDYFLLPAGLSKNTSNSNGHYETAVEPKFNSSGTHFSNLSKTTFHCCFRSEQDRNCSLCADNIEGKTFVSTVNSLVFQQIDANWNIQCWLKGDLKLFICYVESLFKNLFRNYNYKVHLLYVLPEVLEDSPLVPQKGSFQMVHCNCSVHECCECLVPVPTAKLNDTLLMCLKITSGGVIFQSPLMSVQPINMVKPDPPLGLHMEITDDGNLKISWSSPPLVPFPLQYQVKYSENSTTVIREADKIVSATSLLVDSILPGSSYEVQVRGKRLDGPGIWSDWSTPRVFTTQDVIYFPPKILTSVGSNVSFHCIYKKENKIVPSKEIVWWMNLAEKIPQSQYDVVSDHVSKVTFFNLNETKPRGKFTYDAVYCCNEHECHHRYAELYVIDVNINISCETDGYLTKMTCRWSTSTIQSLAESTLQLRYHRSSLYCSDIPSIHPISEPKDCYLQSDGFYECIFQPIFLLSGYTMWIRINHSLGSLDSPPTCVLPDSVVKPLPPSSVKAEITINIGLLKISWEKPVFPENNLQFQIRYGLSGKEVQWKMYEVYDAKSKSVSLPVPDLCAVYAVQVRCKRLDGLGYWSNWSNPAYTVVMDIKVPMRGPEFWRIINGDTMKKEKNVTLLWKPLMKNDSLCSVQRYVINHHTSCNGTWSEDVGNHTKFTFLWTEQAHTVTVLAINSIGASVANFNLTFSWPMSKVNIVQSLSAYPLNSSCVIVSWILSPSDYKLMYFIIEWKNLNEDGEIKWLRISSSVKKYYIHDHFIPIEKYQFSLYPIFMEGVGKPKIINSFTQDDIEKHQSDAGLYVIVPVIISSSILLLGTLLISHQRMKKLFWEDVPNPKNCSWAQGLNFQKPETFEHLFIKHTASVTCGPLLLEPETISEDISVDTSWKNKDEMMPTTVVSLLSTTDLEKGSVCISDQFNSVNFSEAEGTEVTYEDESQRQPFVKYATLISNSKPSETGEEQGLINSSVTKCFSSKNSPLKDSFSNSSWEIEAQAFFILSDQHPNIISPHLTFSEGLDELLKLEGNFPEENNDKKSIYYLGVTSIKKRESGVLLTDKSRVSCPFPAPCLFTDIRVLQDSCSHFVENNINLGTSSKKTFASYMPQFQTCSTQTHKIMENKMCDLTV
Experimental: The direct binding of diLep9R3LC or Lep9R3LC to the target was evaluated using a dual-channel surface plasmon resonance (SPR) instrument (Reichert SR7500DC system, Depew, NY). The process of immobilizing the leptin receptor protein (R&D Systems, Minneapolis, MN) onto the sensor chip surface was accomplished using free amine coupling through an 1-ethyl-3-(3-dimethylaminopropyl) carbodiimide hydrochloride (EDC)/N-hydroxysuccinimide (NHS) reaction. The process of the EDC/NHS reaction involves injecting a mixture containing 0.1 M EDC and 0.05 M NHS. Subsequently, the remaining activated carboxyl groups were quenched with 1 M ethanolamine at pH 6.0. All dilutions of the working peptides were prepared in the running buffer (PBS with 1% DMSO) and injected for 3 min (association time) at a flow rate of 50 μl/min followed by a dissociation phase of 3 min. Nonspecific background binding was subtracted from each sensogram using SPR_V4017 Data Acquisition and Alignment Program (Reichert, Depew, NY). Binding rates and constants were independent of flow rate over a wide range. Best-fit kinetic parameters were obtained by global fitting analysis using Scrubber2 (Biologic Software, Australia).

N2a cells [2] = test: Cytotoxicity, Cell Counting Kit-8 assay; conditions: 24 h posttransfection, Cell Counting Kit-8, at tested weight ratio, with siSOD1 (Fig. 1G)
N2a cells [3] = system: N2a cells
leptin receptor [4] = biological target: T2, leptin receptor (Mus musculus, UniProt P48356); test: SPR
T2 chain: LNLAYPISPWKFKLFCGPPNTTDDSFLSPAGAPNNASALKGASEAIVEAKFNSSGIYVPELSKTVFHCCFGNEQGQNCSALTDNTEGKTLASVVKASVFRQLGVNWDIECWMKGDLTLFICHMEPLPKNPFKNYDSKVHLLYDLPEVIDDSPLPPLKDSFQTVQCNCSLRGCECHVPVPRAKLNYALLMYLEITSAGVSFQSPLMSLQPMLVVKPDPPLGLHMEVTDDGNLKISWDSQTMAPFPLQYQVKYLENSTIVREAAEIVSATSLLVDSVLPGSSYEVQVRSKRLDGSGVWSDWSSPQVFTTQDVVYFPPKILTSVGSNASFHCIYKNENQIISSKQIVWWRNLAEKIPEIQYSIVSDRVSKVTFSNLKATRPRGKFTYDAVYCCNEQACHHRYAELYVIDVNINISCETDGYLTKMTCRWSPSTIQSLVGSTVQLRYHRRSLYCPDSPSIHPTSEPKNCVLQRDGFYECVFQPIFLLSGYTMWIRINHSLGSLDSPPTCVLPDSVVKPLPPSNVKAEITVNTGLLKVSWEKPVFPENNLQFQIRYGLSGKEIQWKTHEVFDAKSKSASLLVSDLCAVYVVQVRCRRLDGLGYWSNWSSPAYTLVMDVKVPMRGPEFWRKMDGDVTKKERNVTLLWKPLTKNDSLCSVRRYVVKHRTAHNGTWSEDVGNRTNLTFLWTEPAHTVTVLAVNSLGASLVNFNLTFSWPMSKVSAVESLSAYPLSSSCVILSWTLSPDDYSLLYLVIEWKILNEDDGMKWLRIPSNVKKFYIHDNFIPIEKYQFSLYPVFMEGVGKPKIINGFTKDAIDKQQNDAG

Molecule: EVGQSDYSSYARTSIRASLTFGGGGRRRRRRRRRLLLC [scrambled9R, scrambled peptide, nontargeting control]
- SOD1 silencing, brain (SOD1): not when used with scrambled peptide

Molecule: I: YQQVLTSLPSQNVLQIANDLENLRDLLHLLGGGGRRRRRRRRRLLLC / II: YQQVLTSLPSQNVLQIANDLENLRDLLHLLGGGGRRRRRRRRRLLLC (disulfide I:47-II:47) [diLep9R3LC]
- kon (leptin receptor [1]): 3300 M⁻¹ s⁻¹
- cytotoxicity (N2a cells [2]): did not show any cytotoxicity

Molecule: YQQVLTSLPSQNVLQIANDLENLRDLLHLLGGGGRRRRRRRRRLLLC [Lep9R3LC]
- Kd (leptin receptor [4]): 1380 nM

Now from value to molecule, other results behind:

- kon (leptin receptor [1]; SPR Reichert SR7500DC, amine-coupled receptor, running buffer PBS with 1% DMSO, 3 min association, 3 min dissociation, 50 μl/min, global fit Scrubber2): 1100 M⁻¹ s⁻¹
- Kd (leptin receptor [1]; SPR, leptin receptor immobilized, PBS with 1% DMSO, global fit, read-out: binding affinity (KD) (Kd/Ka)): 1380 nM
Molecule: YQQVLTSLPSQNVLQIANDLENLRDLLHLLGGGGRRRRRRRRRLLLC [Lep9R3LC]
- cytotoxicity (N2a cells [3]): did not show any cytotoxicity

- Kd (leptin receptor [4]): 462 nM
Molecule: YQQVLTSLPSQNVLQIANDLENLRDLLHLLGGGGRRRRRRRRRLLLC (also: disulfide-linked dimer via C-terminal Cys) [diLep9R3LC]
